Drawing on patent publication US20250122192A1, “5-PYRIMIDINECARBOXAMIDE DERIVATIVES AND METHODS OF USING THE SAME” (Rgenta Therapeutics, Inc., priority 2021, published 2025), this text covers IC50 and activation for 54 compounds.

Counter-ions that a name gives are not always drawn.

One test deals with PMS1. The test can be described thus: Mini-gene reporter assay-PMS1. It is filed as cell-based. As to conditions: Homo sapiens, HEK293, PMS1 mini-gene firefly luciferase reporter transiently transfected into HEK293 cells; read-out: PMS1 IC50. The gist of the method: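 Compound dilution series in duplicate added to transiently transfected HEK293 reporter cells, then incubated; EC50 from Levenberg-Marquardt fit of luminescence. The reporter joins the alternatively skipped exon, its neighbouring introns and exons to firefly luciferase, so induced inclusion gives more signal.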
(A reporter such as luciferase makes a cellular process visible.)
With `CCNC1CCN(c2ncc(C(=O)Nc3cn4cc(C)nc4c(C)n3)c(OCC)n2)C1` (stereo not drawn) [Compound 70], the IC50 (in general, the midpoint of a concentration-inhibition curve) is < 500 nM.

Take `CCOc1nc(N2CCCC(NC)C2)ncc1C(=O)Nc1cc(F)c2nc(C)cn2c1` (stereo not drawn) [Compound 232]: the IC50 is 500 to 1000 nM.

In the case of `CCOc1nc(N2CCNCC(CO)C2)ncc1C(=O)Nc1cc(F)c2nc(C)cn2c1` (stereo not drawn) [Compound 109], the 50% inhibitory concentration (IC50) was in the range of 1000 to 3000 nM.

With `CCOc1nc(N2CCC(C3NCC34CCC4)CC2)ncc1C(=O)Nc1cc(F)c2nc(C)cn2c1` (stereo not drawn) [Compound 133], the IC50 lay within 500 to 1000 nM.

On to `CCOc1nc(N2CCC(NC)C2)ncc1C(=O)Nc1cn2cc(C)nc2c(C)n1` (stereo not drawn) [Compound 99], for which the IC50 was < 500 nM.

As to `CCOc1nc(N2CCC3(CCNCC3)C2)ncc1C(=O)Nc1cc(F)c2nc(C)cn2c1` [Compound 219], the IC50 was < 500 nM.

Regarding `CCOc1nc(N2CC(C3CNC3)C2)ncc1C(=O)Nc1cc(F)c2nc(C)cn2c1` [Compound 143], the IC50 is < 500 nM.

As for `CCOc1nc(N2CCC3(CC2)CNC3)ncc1C(=O)Nc1cc(F)c2nc(C)cn2c1` [Compound 235], the IC50 was < 500 nM.

Take `CCOc1nc(N2CCC(NCCOC)CC2)ncc1C(=O)Nc1cc(F)c2nc(C)cn2c1` [Compound 155]: the IC50 is < 500 nM.

In the case of `CCOc1nc(N2CC3CCCC(C2)N3)ncc1C(=O)Nc1cc(F)c2nc(C)cn2c1` [Compound 185], the IC50 was 1000 to 3000 nM.

Regarding `CCOc1nc(N2CC[C@H]3CCN[C@H]3C2)ncc1C(=O)Nc1cc(F)c2nc(C)cn2c1` (racemic) [Compound 198], the IC50 lay within 1000 to 3000 nM.

On to `CCOc1nc(N(CC)C2CCNCC2)ncc1C(=O)Nc1cn2cc(C)nc2cn1` [Compound 267, 4-ethoxy-2-(ethyl(piperidin-4-yl)amino)-N-(2-methylimidazo[1,2-a]pyrazin-6-yl)pyrimidine-5-carboxamide formic acid], for which the IC50 fell in the range of 500 to 1000 nM.

As to `CCOc1nc(N2CCC3(CC2)COC(C)CN3)ncc1C(=O)Nc1cn2cc(C)nc2c(C)n1` (stereo not drawn) [Compound 61], the half-maximal inhibitory concentration (IC50) was > 3000 nM.

On to `CCOc1nc(N(C)CC2CCNC2)ncc1C(=O)Nc1cc(F)c2nc(C)cn2c1` (stereo not drawn) [Compound 210], for which the IC50 lay in the range of 500 to 1000 nM.

With `CCOc1nc(N2CC(NC)C2)ncc1C(=O)Nc1cc(F)c2nn(C)cc2c1` [Compound 254, 4-ethoxy-N-(7-fluoro-2-methyl-2H-indazol-5-yl)-2-(3-(methylamino)azetidin-1-yl)pyrimidine-5-carboxamide hydrochloride], the IC50 is > 3000 nM.

`CCOc1nc(N2CC[C@@H]3NCCC[C@@H]3C2)ncc1C(=O)Nc1cc(F)c2nc(C)cn2c1` (racemic) [Compound 139]: the IC50 is < 500 nM.

As for `CCOc1nc(N2CC3(CCNCC3)C2)ncc1C(=O)Nc1cn2cc(C)nc2c(C)n1` [Compound 17], the IC50 is < 500 nM.

Regarding `CCOc1nc(N2CCCNCC2)ncc1C(=O)Nc1cc(F)c2nc(C)cn2c1` [Compound 15, 2-(1,4-diazepan-1-yl)-4-ethoxy-N-{8-fluoro-2-methylimidazo[1,2-a]pyridin-6-yl}pyrimidine-5-carboxamide], the IC50 was < 500 nM.

`CCOc1nc(N2CC3CNC(C3)C2)ncc1C(=O)Nc1cn2cc(C)nc2c(C)n1` (stereo not drawn) [Compound 85]: the IC50 is > 3000 nM.

For the compound `CCOc1nc(N2C[C@H]3CNCC[C@H]32)ncc1C(=O)Nc1cc(F)c2nc(C)cn2c1` (racemic) [Compound 245], the 50% inhibitory concentration (IC50) is < 500 nM.

With `CCOc1nc(NC2CCNCC2)ncc1C(=O)Nc1cn2cc(C)nc2c(C)n1` [Compound 251, N-(2,8-dimethylimidazo[1,2-a]pyrazin-6-yl)-4-ethoxy-2-(piperidin-4-ylamino) pyrimidine-5-carboxamide formate], the concentration for half-maximal inhibition (IC50) lay in the range of 1000 to 3000 nM.

With `CCOc1nc(N2C[C@H]3CNCC[C@H]32)ncc1C(=O)Nc1cn2cc(C)nc2c(C)n1` (racemic) [Compound 95], the IC50 is < 500 nM.

As for `CCOc1nc(N(C)C[C@H]2[C@@H]3CNC[C@@H]32)ncc1C(=O)Nc1cc(F)c2nc(C)cn2c1` [Compound 117], the IC50 lay in the range of 1000 to 3000 nM.

Consider `CCOc1nc(N2CC34CCCC3(CNC4)C2)ncc1C(=O)Nc1cc(F)c2nc(C)cn2c1` (stereo not drawn) [Compound 151], for which the IC50 is 1000 to 3000 nM.

For the compound `CCOc1nc(N2C[C@@H]3CNC[C@]3(C)C2)ncc1C(=O)Nc1cn2cc(C)nc2c(C)n1` (racemic) [Compound 98], the IC50 was < 500 nM.

As for `COc1nc(N(C)C2CCNCC2)ncc1C(=O)Nc1cn2cc(C)nc2cn1` [Compound 257, 4-methoxy-2-(methyl(piperidin-4-yl)amino)-N-(2-methylimidazo[1,2-a]pyrazin-6-yl)pyrimidine-5-carboxamide formate], the half-inhibitory concentration (IC50) lay in the range of 500 to 1000 nM.

Regarding `CCOc1nc(N2CC3CNCCC32)ncc1C(=O)Nc1cn2cc(C)nc2c(C)n1` (stereo not drawn) [Compound 77], the IC50 is < 500 nM.

With `CCOc1nc(N2CCC(CNC(C)C)CC2)ncc1C(=O)Nc1cc(F)c2nc(C)cn2c1` [Compound 119], the IC50 is < 500 nM.

On to `CCCOc1nc(N2CCNCC2)ncc1C(=O)Nc1cc(F)c2nn(C)cc2c1` [Compound 301, N-(7-fluoro-2-methyl-2H-indazol-5-yl)-2-(piperazin-1-yl)-4-propoxypyrimidine-5-carboxamide], for which the IC50 is 1000 to 3000 nM.

As for `CCOc1nc(N2CCNC(C)C2)ncc1C(=O)Nc1cn2cc(C)nc2c(C)n1` (stereo not drawn) [Compound 102], the IC50 was in the range of 500 to 1000 nM.

For the compound `CCOc1nc(N2CCN[C@@H](C(C)C)C2)ncc1C(=O)Nc1cc(F)c2nc(C)cn2c1` [Compound 226], the IC50 was < 500 nM.

Turning to `CCOc1nc(N2CCNC3(CC3)C2)ncc1C(=O)Nc1cc(F)c2nn(C)cc2c1` [Compound 299, 4-ethoxy-N-(7-fluoro-2-methyl-2H-indazol-5-yl)-2-(4,7-diazaspiro[2.5]octan-7-yl)pyrimidine-5-carboxamide formate], the IC50 is > 3000 nM.

On to `CCOc1nc(N2C[C@@H]3CNC[C@]3(C)C2)ncc1C(=O)Nc1cc(F)c2nc(C)cn2c1` (racemic) [Compound 179], for which the IC50 was < 500 nM.

Take `CCOc1nc(N2CCC3CCNCC3C2)ncc1C(=O)Nc1cc(F)c2nc(C)cn2c1` (stereo not drawn) [Compound 135]: the IC50 lay within 500 to 1000 nM.

With `CCOc1nc(N2CCNCCC2C)ncc1C(=O)Nc1cn2cc(C)nc2c(C)n1` (stereo not drawn) [Compound 40], the IC50 was 1000 to 3000 nM.

`CCOc1nc(N(C)C2CCNCC2)ncc1C(=O)Nc1cc(F)c2nc(C)cn2c1` [Compound 241]: the IC50 is < 500 nM.

Take `CCOc1nc(N2CC3(CC(NC)CO3)C2)ncc1C(=O)Nc1cc(F)c2nc(C)cn2c1` (stereo not drawn) [Compound 246]: the IC50 was < 500 nM.

As for `CCOc1nc(N2CCN[C@@H](C(C)C)C2)ncc1C(=O)Nc1cn2cc(C)nc2c(C)n1` [Compound 65], the IC50 is 500 to 1000 nM.

Consider `CCOc1nc(N2CC3(CCNC3)C2)ncc1C(=O)Nc1cn2cc(C)nc2c(C)n1` [Compound 51], for which the half-inhibitory concentration (IC50) was < 500 nM.

`CCOc1nc(N2CCC(CNC)CC2)ncc1C(=O)Nc1cn2cc(C)nc2c(C)n1` [Compound 76]: the half-maximal inhibitory concentration (IC50) was < 500 nM.

Consider `CCOc1nc(N2CC3CNCC3C2)ncc1C(=O)Nc1cc(F)c2nc(C)cn2c1` (stereo not drawn) [Compound 8, 4-ethoxy-N-{8-fluoro-2-methylimidazo[1,2-a]pyridin-6-yl}-2-{octahydropyrrolo[3,4-c]pyrrol-2-yl}pyrimidine-5-carboxamide], for which the IC50 was < 500 nM.

In the case of `CCOc1nc(N2CC(C)NCC2C)ncc1C(=O)Nc1cn2cc(C)nc2c(C)n1` (stereo not drawn) [Compound 32], the IC50 is 1000 to 3000 nM.

For `CCOc1nc(N2CC3CCC2C2CNCC32)ncc1C(=O)Nc1cc(F)c2nc(C)cn2c1` (stereo not drawn) [Compound 128], the IC50 is < 500 nM.

For `CCOc1nc(N2CCC3CCC(C2)N3)ncc1C(=O)Nc1cc(F)c2nc(C)cn2c1` (stereo not drawn) [Compound 167], the IC50 was in the range of 1000 to 3000 nM.

As to `CCOc1nc(N2CCNCC2)ncc1C(=O)Nc1ccc2nn(C)cc2c1` [Compound 25, 4-ethoxy-N-(2-methyl-2H-indazol-5-yl)-2-(piperazin-1-yl)pyrimidine-5-carboxamide], the half-maximal inhibitory concentration (IC50) is 1000 to 3000 nM.

For the compound `CCOc1nc(N2CC(C)NCC2C)ncc1C(=O)Nc1cc(F)c2nc(C)cn2c1` (stereo not drawn) [Compound 230], the IC50 was < 500 nM.

Take `CCOc1nc(N2CCC(NC)C2)ncc1C(=O)Nc1ccc2nn(C)cc2c1` (stereo not drawn) [Compound 270, 4-ethoxy-N-(2-methyl-2H-indazol-5-yl)-2-(3-(methylamino)pyrrolidin-1-yl)pyrimidine-5-carboxamide hydrochloride]: the IC50 was < 500 nM.

Consider `CCOc1nc(N2CC3(CCNC3)C2)ncc1C(=O)Nc1cc(F)c2nc(C)cn2c1` [Compound 212], for which the IC50 was < 500 nM.

The test is the same for the next values; noted with them: Homo sapiens, HEK293, read-out: PMS1 IC50 (nM).
On to `CCOc1nc(N(CC)C2CCNCC2)ncc1C(=O)Nc1cc(OC)c2nc(C)cn2c1` [Compound 260, 4-ethoxy-2-(ethyl(piperidin-4-yl)amino)-N-(8-methoxy-2-methylimidazo[1,2-a]pyridin-6-yl)pyrimidine-5-carboxamide formate], for which the IC50 is < 500 nM.

Still in this test, the particulars now being: Homo sapiens; at 5 μM; PMS1 mini-gene firefly luciferase reporter in HEK293 cells; read-out: PMS1% Effect at 5 μM.
On to `CCOc1nc(N2CC(CO)C3(CNC3)C2)ncc1C(=O)Nc1cn2cc(C)nc2c(C)n1` (stereo not drawn) [Compound 50], for which the activation at 5 µM was < 50%.

As to `CCOc1nc(C2=CCNC2)ncc1C(=O)Nc1cc(F)c2nc(C)cn2c1` [Compound 315, 2-(2,5-dihydro-1H-pyrrol-3-yl)-4-ethoxy-N-8-fluoro-2-methylimidazo[1,2-a]-pyridin-6-ylpyrimidine-5-carboxamide], the activation at 5 µM was > 75%.

Turning to `CCOc1nc(N2CC3(CCN3)C2)ncc1C(=O)Nc1cn2cc(C)nc2c(C)n1` [Compound 24], the activation at 5 µM was in the range of 50 to 75%.

On to `CCOc1nc(N2CC[C@@H]3NCC(=O)N[C@@H]3C2)ncc1C(=O)Nc1cc(F)c2nc(C)cn2c1` (racemic) [Compound 170], for which the activation at 5 µM is < 50%.

Take `CCOc1nc(N2CCN[C@@H](C)C2)ncc1C(=O)Nc1cn2cc(C)nc2c(C)n1` [Compound 19, N-{2,8-dimethylimidazo[1,2-a]pyrazin-6-yl}-4-ethoxy-2-[(3S)-3-methylpiperazin-1-yl]pyrimidine-5-carboxamide]: the activation at 5 µM was 50 to 75%.
